Tests used:
morningglory = test: Test C pre-/postemergence herbicide test; assay type: in vivo, Ipomoea coccinea; parameters: key to Plant response rating, Morningglory: 0 = no effect, 100 = complete control; settings: for Morningglory plant response rating: Preemergence, 500 g ai/ha, scale 0 to 100, 0 no effect, 100 complete control
How it was run: (§1)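 Greenhouse-grown plants were evaluated visually 12 to 14 days after treatment, with 100 meaning complete control and 0 no effect. Application was preemergence, or postemergence at 2 to 18 cm.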

woolly cupgrass = test: Test C pre-/postemergence herbicide test; assay type: in vivo, Eriochloa villosa; settings: for Cupgrass, Woolly plant response rating: Preemergence, 500 g ai/ha, scale 0 to 100, 0 no effect, 100 complete control
How it was run: as §1

eastern black nightshade = test: Test C pre-/postemergence herbicide test; assay type: in vivo, Solanum ptycanthum; settings: for Nightshade plant response rating: Preemergence, 500 g ai/ha, scale 0 to 100, 0 no effect, 100 complete control
How it was run: as §1

[1] = test system: common (oilseed) sunflower; test: Test C pre-/postemergence herbicide test; assay type: in vivo, Helianthus annuus; settings: for Sunflower plant response rating: Preemergence, 500 g ai/ha, scale 0 to 100, 0 no effect, 100 complete control
How it was run: as §1

kochia = test: Test C pre-/postemergence herbicide test; assay type: in vivo, Kochia scoparia; settings: for Kochia plant response rating: Preemergence, 500 g ai/ha, scale 0 to 100, 0 no effect, 100 complete control
How it was run: as §1

large crabgrass = test: Test A pre-/postemergence herbicide test; assay type: in vivo, Digitaria sanguinalis
How it was run: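 Plants are held in greenhouse about ten days after treatment, then compared with untreated controls and scored 0 (no effect) to 100 (complete control). Preemergence dosing is a directed soil spray on sown sandy loam; postemergence dosing is spray to runoff at 2–10 cm height.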

giant foxtail = test: Test C pre-/postemergence herbicide test; assay type: in vivo, Setaria faberi; settings: for Foxtail, Giant plant response rating: Preemergence, 500 g ai/ha, scale 0 to 100, 0 no effect, 100 complete control
How it was run: as §1

rice = test: Test B pre-/postemergence herbicide test; assay type: in vivo, Oryza sativa; settings: preemergence
How it was run: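 Species tested were Echinochloa crus-galli, Ipomoea coccinea, Xanthium strumarium and Oryza sativa, treated both before emergence and at the 1- to 4-leaf stage; rice and barnyardgrass were also tested under flooding at 2 leaves. Greenhouse incubation lasted 13–15 days before visual 0–100 scoring.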

pigweed = test: Test C pre-/postemergence herbicide test; assay type: in vivo, Amaranthus retroflexus; settings: for Pigweed plant response rating: Preemergence, 500 g ai/ha, scale 0 to 100, 0 no effect, 100 complete control
How it was run: as §1

[2] = 125 g ai/ha, scale 0 (no effect) to 100 (complete control), visual, 12 to 14 days, preemergence
[3] = 250 g ai/ha, scale 0 to 100 (0 no effect, 100 complete control), visual, 12 to 14 days, preemergence
[4] = Postemergence, 500 g ai/ha, 0 to 100 scale, 0 no effect, 100 complete control
[5] = Postemergence, 2000 g ai/ha, 0 to 100 scale, 0 no effect, 100 complete control
[6] = Preemergence, 500 g ai/ha, visual rating, 0 to 100 scale (0 no effect, 100 complete control)
[7] = Preemergence, 2000 g ai/ha, visual rating, 0 to 100 scale (0 no effect, 100 complete control)
[8] = 500 g ai/ha, visual rating 0-100, 0 no effect, 100 complete control
[9] = 125 g ai/ha, 0 to 100 scale, 0 is no effect, 100 is complete control
[10] = 62 g ai/ha, preemergence, scale 0 to 100

| Structure (SMILES) | Plant response rating, Morningglory (morningglory; [2]) | Morningglory plant response rating (morningglory) | Plant response rating, Cupgrass, Woolly (woolly cupgrass; [2]) | Plant response rating, Cupgrass, Woolly (woolly cupgrass; [3]) | Cupgrass, Woolly plant response rating (woolly cupgrass) | Plant response rating, Nightshade (eastern black nightshade; [2]) | Nightshade plant response rating (eastern black nightshade) | Plant response rating, Sunflower [1, 2] | Sunflower plant response rating [1] | Plant response rating, Kochia (kochia; [2]) | Kochia plant response rating (kochia) | Crabgrass, Large plant response rating (large crabgrass; [4]) | Plant response rating, Crabgrass, Large (large crabgrass; [5]) | Crabgrass, Large plant response rating (large crabgrass; [6]) | Crabgrass, Large plant response rating (large crabgrass; [7]) | Plant response rating, Foxtail, Giant (giant foxtail; [2]) | Plant response rating, Foxtail, Giant (giant foxtail; [3]) | Foxtail, Giant plant response rating (giant foxtail) | Plant response rating, Rice (rice; [8]) | Plant response rating, Rice (rice; [9]) | other results |
| --- | --- | --- | --- | --- | --- | --- | --- | --- | --- | --- | --- | --- | --- | --- | --- | --- | --- | --- | --- | --- | --- |
| CCN(CC)C(=O)c1cccc(NC(=O)c2cc(C(C)(C)C)nn2CC)n1 [Compound 145] | 0 | 30 | 0 | 0 | 40 | 70 | 90 | 0 | 30 | 60 | 80 | 30 | 85 | 70 | 90 | 0 | 50 | 70 | 20 | 0 | Plant response rating (0 = no effect, 100 = complete control), Morningglory (morningglory; 62 g ai/ha, preemergence): 0; Plant response rating (0 = no effect, 100 = complete control), Cupgrass, Woolly (woolly cupgrass; 62 g ai/ha, preemergence): 0; Plant response rating (0 = no effect, 100 = complete control), Nightshade (eastern black nightshade; 62 g ai/ha, preemergence): 60; Plant response rating (0 = no effect, 100 = complete control), Sunflower ([1]; 62 g ai/ha, preemergence): 0; Plant response rating (0 = no effect, 100 = complete control), Kochia (kochia; 62 g ai/ha, preemergence): 20; Plant response rating (0 = no effect, 100 = complete control), Foxtail, Giant (giant foxtail; 62 g ai/ha, preemergence): 0; Plant response rating (0 = no effect, 100 = complete control), Pigweed (pigweed; 62 g ai/ha, preemergence): 85; Plant response rating, Pigweed (pigweed; [2]): 90; Pigweed plant response rating (pigweed): 95 |
| CCNC(=O)c1cc(C)nc(NC(=O)c2cc(C(C)(C)C)nn2CC)c1 [Compound 149] | 5 | 60 | 5 | 20 | 70 | 80 | 95 | 0 | 0 | 10 | 90 | 40 | 75 | 95 | 100 | 50 | 60 | 100 | 30 | 20 | Plant response rating, Morningglory (morningglory; [10]): 0; Plant response rating, Cupgrass, Woolly (woolly cupgrass; [10]): 0; Plant response rating, Nightshade (eastern black nightshade; [10]): 80; Plant response rating, Sunflower [1, 10]: 0; Plant response rating, Kochia (kochia; [10]): 0; Plant response rating, Foxtail, Giant (giant foxtail; [10]): 0; Plant response rating, Pigweed (pigweed; [10]): 20; Plant response rating, Pigweed (pigweed; [2]): 100; Pigweed plant response rating (pigweed): 100 |

Source: patent US20060069132A1, “Azolecarboxamide herbicides” (priority 2004, published 2006)
